What was measured:
Assay type in all cases: cell-based
[1] = test system: HGADFN167 Lmna^G608G/G608G fibroblasts; assay: Senescence-associated β-galactosidase activity in human progeroid cells; conditions: HGADFN167, 5 µM, 20 days
From the text: FIGURE 6 (A) Representative cropped immunoblots and progerin quantification in human Lmna^G608G/G608G fibroblasts. MW, molecular weight (in kDa) markers. […] (B) PROTAC 2 increases cell proliferation (upper panels) and decreases the number of misshapen nuclei (lower panels). White arrows highlight selected misshapen nuclei. (C) PROTAC 2 decreases senescence‐associated β‐galactosidase (SA‐βgal) activity, interleukin (IL) 6, p16 and p21 senescent markers. Bar graphs show mean±sem of 2 (SA‐βgal and p21) or 3 (IL‐6 and p16) independent experiments performed in triplicate. (D) PROTAC 2 decreases phosphorylated histone 2AX (pH2AX) and increases trimethylated histone 3 (H3K9Me3) levels. (E) PROTAC 2 increases the oxygen consumption rate (OCR), ATP production and the number of healthy mitochondria in human progeroid cells. […] Data were analysed using one‐way ANOVA followed by Dunnett's post–hoc test vs vehicle (panel A) or vs G608G cells (panels B‐E). ^*, p < 0.05; ^**, p < 0.01; ^***, p < 0.001; ^****, p < 0.0001. […]
compound exposure. […] Samples were analysed by electrophoresis in polyacrylamide gels (All Kd SDS-PAGE, BioRad) and the proteins transferred to nitrocellulose membranes (GE Healthcare, Amersham). […]
GAPDH (Cell Signaling, 2118S, 1:5000) and anti-actin (Santa Cruz Biotechnology, sc-376248, 1:500) as antibodies for loading control. […] The bands were quantified by densitometry using the […]

[2] = test system: Lmna^G609G/G609G fibroblasts; assay: Immunocytofluorescence (Ki‐67, lamin A/C) in mouse progeroid cells; conditions: 5 µM
Experimental: Confocal fluorescence microscopy images are representative of 2 independent experiments. […] Representative cropped immunoblots are shown. […] MW, molecular weight (in kDa) markers. (C) PROTAC 2 decreases senescence‐associated β‐galactosidase (SA‐βgal) activity, interleukin (IL) 1α and p16 senescent markers. Lmna^G609G/G609G (G609G) or Lmna^+/+ (WT) fibroblasts were incubated with vehicle or compound 2 (5 µM). […] Data were analysed using one‐way ANOVA followed by Dunnett's post–hoc test. ^*, p < 0.05; ^**, p < 0.01, ^***, p < 0.001, ^****, p < 0.0001 vs G609G cells. […]
compound exposure. […]
TBS-T and proteins were visualized by quimioluminiscence (GE Healthcare […]
For immunocytofluorescence studies, mouse or human progeroid cells previously incubated with compound of interest or DMSO were seeded at a density of […] or 1.5 x 10^4 cells/well over 12 mm diameter slide covers respectively in a 12-well plate and were incubated for 24 h at 37 ᵒC with compound of interest. Cells were fixed with 4% formaldehyde (Ki67, pH2AX) or cold methanol (Lamin A/C, H3K9Me3) from Sigma-Aldrich during 20 min and permeabilized with PBS containing 0.2% Triton X-100 (PBS-T, Sigma-Aldrich). Then, cells were blocked with TBS 2% BSA during 30 min at rt, followed by incubation o.n. with anti-lamin A/C (Santa Cruz Biotechnology, SC-376248, […]
at 4 °C. After that, cells were washed with TBS (1x) and incubated in absence of light for 1 h with fluorescent goat anti-mouse (1:500, Alexa Fluor 488, Life Technologies) diluted in TBS with 2% BSA. Finally, cells were washed with TBS (2x) and the slide cover was carefully mounted with Immumount (Thermo Scientific). The visualization was carried out using confocal microscopy (Olympus IX83) equipped with a 40X oil immersion lens and the appropriate excitation and emission filters at the microscopy UCM facilities. […]
7. Senescence-associated (SA) β-galactosidase activity. […]

[3] = test system: Lmna^G609G/G609G mouse fibroblasts; assay: Cellular uptake by fluorescence microscopy; conditions: intrinsic fluorescence, 5 μM
Experimental: Supporting Figure S4. Cellular internalization of compounds 2 and 9. Live progeroid
LmnaG609G/G609G mouse fibroblasts were incubated with 5 μM of indicated compound and
images were taken every 5 minutes in a confocal fluorescence microscopy Olympus lx83
(lexc = 420 nm; lem = 530 nm). Shown image corresponds to 100 min incubation. Scale […]

SMILES: CC1(C)Oc2cc3oc(=O)ccc3cc2C[C@@H]1OC(=O)CCCCCNc1cccc2c1C(=O)N(C1CCC(=O)NC1=O)C2=O (some centres unmarked) [compound 2]
- SA‐βgal senescent marker [1]: significantly reduced
- cell proliferation (Ki‐67) [2]: significantly increases cell proliferation
- nuclear cell membrane thickness [2]: decreases nuclear cell membrane thickness
- progerin accumulation in the nuclear membrane [2]: decreases progerin accumulation in the nuclear membrane
- cellular uptake [3]: confirmed

Reference: article PMC13252604, “First Generation Proteolysis Targeting Chimeras (PROTACs) for the Treatment of Progeria” (Advanced Science, 2026)
